PubChem BioAssay AID1259407 (Chemical Carcinogenesis Research Information System (CCRIS), 2018)
The source made the active and inactive calls. How the calls were made is not given here.

Test system: CCRIS mutagenicity, Ames/micronucleus/aberration tests
Experiment: CCRIS mutagenicity studies
[1] = Test System: AMES SALMONELLA TYPHIMURIUM, Strain/Indicator: TA98, Metabolic Activation: NONE, Method: PREINCUBATION
[2] = Test System: AMES SALMONELLA TYPHIMURIUM, Strain/Indicator: TA100, Metabolic Activation: NONE, Method: PREINCUBATION
[3] = Test System: AMES SALMONELLA TYPHIMURIUM, Strain/Indicator: TA1535, Metabolic Activation: NONE, Method: PREINCUBATION
[4] = Test System: AMES SALMONELLA TYPHIMURIUM, Strain/Indicator: TA1535, Metabolic Activation: NONE, Method: STANDARD PLATE

Compound: O=C(O)c1ccccc1O
- mutagenic call (Test System: AMES SALMONELLA TYPHIMURIUM, Strain/Indicator: TA98, Metabolic Activation: GUINEA PIG, LIVER, S-9, PCB, Method: PREINCUBATION): inactive; negative
- mutagenic call (Test System: AMES SALMONELLA TYPHIMURIUM, Strain/Indicator: TA98, Metabolic Activation: HAMSTER, LIVER, S-9, PCB, Method: PREINCUBATION): inactive; negative
- mutagenic call (Test System: AMES SALMONELLA TYPHIMURIUM, Strain/Indicator: TA98, Metabolic Activation: MOUSE, LIVER, S-9, PCB, Method: PREINCUBATION): inactive; negative
- mutagenic call [1]: inactive; negative
- mutagenic call (Test System: AMES SALMONELLA TYPHIMURIUM, Strain/Indicator: TA98, Metabolic Activation: RAT LIVER S-9, PHENOBARBITAL AND BETA-NAPHTHOFLAVONE, Method: PREINCUBATION): inactive; negative
- mutagenic call (Test System: AMES SALMONELLA TYPHIMURIUM, Strain/Indicator: TA98, Metabolic Activation: RAT, LIVER, S-9, PCB, Method: PREINCUBATION): inactive; negative
- mutagenic call (Test System: AMES SALMONELLA TYPHIMURIUM, Strain/Indicator: TA100, Metabolic Activation: GUINEA PIG, LIVER, S-9, PCB, Method: PREINCUBATION): inactive; negative
- mutagenic call (Test System: AMES SALMONELLA TYPHIMURIUM, Strain/Indicator: TA100, Metabolic Activation: HAMSTER, LIVER, S-9, PCB, Method: PREINCUBATION): inactive; negative
- mutagenic call (Test System: AMES SALMONELLA TYPHIMURIUM, Strain/Indicator: TA100, Metabolic Activation: MOUSE, LIVER, S-9, PCB, Method: PREINCUBATION): inactive; negative
- mutagenic call [2]: inactive; negative
- mutagenic call (Test System: AMES SALMONELLA TYPHIMURIUM, Strain/Indicator: TA100, Metabolic Activation: RAT LIVER S-9, PHENOBARBITAL AND BETA-NAPHTHOFLAVONE, Method: PREINCUBATION): inactive; negative
- mutagenic call [3]: inactive; negative
- mutagenic call (Test System: AMES SALMONELLA TYPHIMURIUM, Strain/Indicator: TA1535, Metabolic Activation: RAT LIVER S-9, PHENOBARBITAL AND BETA-NAPHTHOFLAVONE, Method: PREINCUBATION): inactive; negative
- mutagenic call (Test System: AMES SALMONELLA TYPHIMURIUM, Strain/Indicator: TA1537, Metabolic Activation: NONE, Method: PREINCUBATION): inactive; negative
- mutagenic call (Test System: AMES SALMONELLA TYPHIMURIUM, Strain/Indicator: TA1537, Metabolic Activation: RAT LIVER S-9, PHENOBARBITAL AND BETA-NAPHTHOFLAVONE, Method: PREINCUBATION): inactive; negative
- mutagenic call (Test System: E.COLI, Strain/Indicator: WP2UVRA/PKM101, Metabolic Activation: NONE, Method: PREINCUBATION): inactive; negative
- mutagenic call (Test System: E.COLI, Strain/Indicator: WP2UVRA/PKM101, Metabolic Activation: RAT LIVER S-9, PHENOBARBITAL AND BETA-NAPHTHOFLAVONE, Method: PREINCUBATION): inactive; negative

Compound: O=C(N[C@H](CO)[C@H](O)c1ccc([N+](=O)[O-])cc1)C(Cl)Cl
- mutagenic call (Test System: CHINESE HAMSTER V-79, Strain/Indicator: V-79/6-THIOGUANINE, Metabolic Activation: NONE): active; positive
- mutagenic call (Test System: CHINESE HAMSTER V-79, Strain/Indicator: V-79/6-THIOGUANINE, Metabolic Activation: RAT HEPATOCYTES): inactive; negative

Compound: Nc1ccc(O)c2c1C(=O)c1ccccc1C2=O
- mutagenic call (Test System: AMES SALMONELLA TYPHIMURIUM, Strain/Indicator: TA98, Metabolic Activation: RAT, LIVER, S-9, AROCLOR 1254, Method: STANDARD PLATE): inactive; negative
- mutagenic call (Test System: AMES SALMONELLA TYPHIMURIUM, Strain/Indicator: TA100, Metabolic Activation: NONE, Method: STANDARD PLATE): inactive; negative
- mutagenic call (Test System: AMES SALMONELLA TYPHIMURIUM, Strain/Indicator: TA100, Metabolic Activation: RAT, LIVER, S-9, AROCLOR 1254, Method: STANDARD PLATE): inactive; negative
- mutagenic call [4]: inactive; negative
- mutagenic call (Test System: AMES SALMONELLA TYPHIMURIUM, Strain/Indicator: TA1535, Metabolic Activation: RAT, LIVER, S-9, AROCLOR 1254, Method: STANDARD PLATE): inactive; negative
- mutagenic call (Test System: AMES SALMONELLA TYPHIMURIUM, Strain/Indicator: TA1537, Metabolic Activation: NONE, Method: STANDARD PLATE): active; positive
- mutagenic call (Test System: AMES SALMONELLA TYPHIMURIUM, Strain/Indicator: TA1537, Metabolic Activation: RAT, LIVER, S-9, AROCLOR 1254, Method: STANDARD PLATE): active; positive
- mutagenic call (Test System: AMES SALMONELLA TYPHIMURIUM, Strain/Indicator: TA1538, Metabolic Activation: RAT, LIVER, S-9, AROCLOR 1254, Method: STANDARD PLATE): inactive; negative

Compound: [N-]=[N+]=CC(=O)NCC(=O)NN
- mutagenic call [4]: active; positive
- mutagenic call (Test System: UDS RODENT CELLS, Strain/Indicator: THY INCORP (NON-S-PHASE), Metabolic Activation: NONE, Method: AUTORADIOGRAPHY): active; positive

Compound: CCc1ccccc1O
- mutagenic call (Test System: AMES SALMONELLA TYPHIMURIUM, Strain/Indicator: TA97, Metabolic Activation: HAMSTER, LIVER, S-9, AROCLOR 1254 (10 OR 30%), Method: PREINCUBATION): inactive; negative
- mutagenic call (Test System: AMES SALMONELLA TYPHIMURIUM, Strain/Indicator: TA97, Metabolic Activation: NONE, Method: PREINCUBATION): inactive; negative
- mutagenic call (Test System: AMES SALMONELLA TYPHIMURIUM, Strain/Indicator: TA97, Metabolic Activation: RAT, LIVER, S-9, AROCLOR 1254 (10 OR 30%), Method: PREINCUBATION): inactive; negative
- mutagenic call (Test System: AMES SALMONELLA TYPHIMURIUM, Strain/Indicator: TA98, Metabolic Activation: HAMSTER, LIVER, S-9, AROCLOR 1254 (10 OR 30%), Method: PREINCUBATION): inactive; negative
- mutagenic call [1]: inactive; negative
- mutagenic call (Test System: AMES SALMONELLA TYPHIMURIUM, Strain/Indicator: TA98, Metabolic Activation: RAT, LIVER, S-9, AROCLOR 1254 (10 OR 30%), Method: PREINCUBATION): inactive; negative
- mutagenic call (Test System: AMES SALMONELLA TYPHIMURIUM, Strain/Indicator: TA100, Metabolic Activation: HAMSTER, LIVER, S-9, AROCLOR 1254 (10 OR 30%), Method: PREINCUBATION): inactive; negative
- mutagenic call [2]: inactive; negative
- mutagenic call (Test System: AMES SALMONELLA TYPHIMURIUM, Strain/Indicator: TA100, Metabolic Activation: RAT, LIVER, S-9, AROCLOR 1254 (10 OR 30%), Method: PREINCUBATION): inactive; negative
- mutagenic call (Test System: AMES SALMONELLA TYPHIMURIUM, Strain/Indicator: TA1535, Metabolic Activation: HAMSTER, LIVER, S-9, AROCLOR 1254 (10 OR 30%), Method: PREINCUBATION): inactive; negative
- mutagenic call [3]: inactive; negative
- mutagenic call (Test System: AMES SALMONELLA TYPHIMURIUM, Strain/Indicator: TA1535, Metabolic Activation: RAT, LIVER, S-9, AROCLOR 1254 (10 OR 30%), Method: PREINCUBATION): inactive; negative

Compound: C=CCS(=O)(=O)CC=C
- mutagenic call (End Point: In vivo micronucleus, Test System: Peripheral blood reticulocytes, Species: Mouse, Strain/Sex: F1 (Big Blue x A/J) transgenic/Male and female, Route: Oral): inactive; negative
